In publication PMC6328429, “Synthesis of a benzoxazinthione derivative of tanaproget and pharmacological evaluation for PET imaging of PR expression” (EJNMMI Radiopharmacy and Chemistry, 2019):

Legend:
[1] = In vitro non-radioactive metabolite analysis and clearance in MLM; format: in vitro ADME, mouse
Method: Microsomal incubations were performed using a Hamilton Microlab Star liquid handling workstation (Hamilton Robotics, Bonaduz, Switzerland). Test compound 2 (final concentration 1 or 10 μM, 1% DMSO) was pre-incubated at 37 °C for 10 min in MLM or HLM (final concentration 1 mg/ml prepared in 10 mM PBS). Reactions were initiated by the addition of NADPH (final concentration 1 mM). Aliquots were removed from each incubation and quenched in 3 volumes of ice-cold MeOH containing internal standard olomoucine (500 nM in MeOH) at − 1, 0, 5, 15, 30 and 60 min. Incubations were conducted in singlicate. […] Terminated incubations were centrifuged at 3700 rpm at 4 °C for 30 min and supernatant taken for analysis. Microsomal incubations were analysed by liquid chromatography-tandem mass spectrometry (LC-MS/MS). This consisted of a Dionex Ultimate 3000 UHPLC system coupled to a ThermoScientific Q Exactive Plus orbitrap mass spectrometer (Thermo Fisher Scientific Inc., Waltham, USA). Chromatographic separation was achieved using an Acquity UPLC HSS T3 column (1.8 μm, 100 × 2.1 mm) (Waters, Elstree, UK) at 50 °C and a binary mobile phase gradient at a flow rate of 0.4 ml/min. Initial LC conditions comprised 10% formic acid (0.1%) in water (A), 90% methanol (B). This was ramped to […] at 12 min. Sample analysis was by positive ion electrospray ionization. The capillary voltage was 3.5 kV. Full MS/dd-MS^2 (full MS scan followed by data dependent MS/MS) and Full MS/AIF (full MS scan followed by all ion fragmentation) workflows were used in combination. Full MS was performed at a resolution of 70,000, AGC target 1 e^6; dd-MS2 at a resolution of 17,5000, AGC target 1 e^5. LC-MS response (peak area of the analyte/peak area of internal standard) was fitted to a nonlinear single exponential model using software GraphPad Prism software (v6.07, GraphPad Software, Inc., La Jolla, USA). Elimination rate constant (k) was determined and intrinsic clearance, CLint, was calculated as CLint = (V.k)/mg protein where V is the incubation volume (μl) and mg protein is the mg microsomal protein in the incubation. Identification of metabolites in microsomal incubations and elucidation of their structures was undertaken with Compound Discoverer software (v2.0.0.303, Thermo Fisher Scientific Inc., Waltham, USA).

[2] = biological target: T1, progesterone receptor (PR) (Homo sapiens, UniProt P06401); test: T47D alkaline phosphatase (AP) potency assay; format: cell-based
T1 construct: endogenous in cells; host or cells: T47D breast carcinoma cells
T1 sequence (P06401 1-933): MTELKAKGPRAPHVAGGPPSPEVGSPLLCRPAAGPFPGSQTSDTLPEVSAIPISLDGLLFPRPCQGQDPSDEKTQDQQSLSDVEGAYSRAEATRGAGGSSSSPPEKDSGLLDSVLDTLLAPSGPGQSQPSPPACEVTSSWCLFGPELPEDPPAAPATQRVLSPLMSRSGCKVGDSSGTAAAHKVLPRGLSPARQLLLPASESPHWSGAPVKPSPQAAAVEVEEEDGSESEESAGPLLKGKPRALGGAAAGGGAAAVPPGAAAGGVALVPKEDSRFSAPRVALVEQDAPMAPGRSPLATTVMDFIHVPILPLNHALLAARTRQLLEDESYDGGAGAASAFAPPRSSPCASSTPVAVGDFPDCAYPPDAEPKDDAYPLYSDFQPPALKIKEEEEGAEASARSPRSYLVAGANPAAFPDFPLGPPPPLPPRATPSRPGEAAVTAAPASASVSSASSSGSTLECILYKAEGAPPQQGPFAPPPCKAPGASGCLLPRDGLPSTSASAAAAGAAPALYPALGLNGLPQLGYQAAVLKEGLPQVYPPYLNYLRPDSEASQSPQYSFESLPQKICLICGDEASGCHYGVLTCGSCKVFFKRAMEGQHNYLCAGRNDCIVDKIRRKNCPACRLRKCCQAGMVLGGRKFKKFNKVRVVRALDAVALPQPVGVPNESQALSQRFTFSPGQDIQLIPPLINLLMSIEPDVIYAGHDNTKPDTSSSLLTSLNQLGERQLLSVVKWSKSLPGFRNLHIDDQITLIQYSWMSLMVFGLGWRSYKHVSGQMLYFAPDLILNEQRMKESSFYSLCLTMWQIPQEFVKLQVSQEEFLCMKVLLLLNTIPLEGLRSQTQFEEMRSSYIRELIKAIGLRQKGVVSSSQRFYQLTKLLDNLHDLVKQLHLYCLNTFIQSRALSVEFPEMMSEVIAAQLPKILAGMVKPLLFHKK
Method: The method described by Di Lorenzo et al was followed with minor adaptation (Di Lorenzo et al., [1991]). In brief, T47D breast carcinoma cells were seeded in 96-well plates at 50,000 cell/well in RPMI medium supplemented with 10% FBS. After overnight culture, the medium was changed to RPMI phenol red free containing 2% charcoal-stripped FBS. After 24 h, the cells were treated with progesterone (Sigma Aldrich, Gillingham, UK) or the library compounds. Progesterone and the test compounds were dissolved in DMSO (100%) and diluted into treatment medium to give a final DMSO (v/v) concentration of 0.1%. After incubation (48 h) the treatment was finalised by twice washing the plates with PBS. Cells were lysed by two freeze-thaw cycles (− 80 °C). Cellular alkaline phosphatase activity was determined by adding Femto ELISA-AP substrate (200 μL) and optical density measurements taken at 5 and 10 min intervals at a wavelength of 405 nm. Data was interpreted using Graphpad Prism (GraphPad, CA, USA) using the model: dose-response simulation/inhibition, log(agonist/inhibition) vs. response – variable slope (four parameters). For compounds where EC50 > 10,000, an antagonist profile was assumed and the experiment was repeated with the inclusion of progesterone (3 mM) with the library compound. Data shown in the supporting information (Additional file 1: Figure S32).

With `CC1(C)OC(=S)Nc2ccc(-c3cccnc3F)cc21` [Compound 2, 6-(2-fluoropyridin-3-yl)-4,4-dimethyl-1H-benzo[d][1,3]oxazine-2(4H)-thione] the “Metabolite identification by mass spectrometry in MLM” value ([1]; MLM incubation, LC-MS/MS) was “conversion of the thiocarbamate into oxocarbamate as the major metabolic pathway and highlighted oxidative defluorination”, the microsomal CLint ([1]; mouse, mouse liver microsomes, MLM 1 mg/ml, NADPH 1 mM, 37 °C) was 1270 µL/min/mg and the EC50 ([2]; agonist response, 48 h incubation, average of at least n = 3 ± SD) was 4.7 ± 0.07 nM. The “fold more potent than structural isomer 4” value ([2]; compound 2 versus 4) was about 1000 fold.
